Where two headings read alike, the source gives them in different places.
Assays:
[1] = tested on: CD34+ cells isolated from the bone marrow of two healthy donors; experiment: Megakaryocyte differentiation and proliferation, alone and with ruxolitinib, 10 days (FACS); type: cell-based; conditions: 240 h, 10 days
Source text: The cells were then harvested for FACS analysis with live/dead stain and gating with CD34 (progenitor marker) and CD41a and CD42b (mature megakaryocyte markers).

[2] = tested on: patients with myelofibrosis; experiment: Initial human clinical data set, four patients (combination and monotherapy arms); type: in vivo
Source text: Two myelofibrosis patients to enroll (Patients 245 and 246) received Compound 1 in combination with ruxolitinib and received 18 treatment cycles (11 months of treatment). The other two patients to enroll (Patients 247 and 248) received 10 cycles of Compound 1 as monotherapy (6 months of treatment). […] One of the patients who was transfusion dependent at study entry became transfusion independent (defined as >12 weeks without the need for a red blood cell (RBC) transfusion. Indeed, 7 months had elapsed since their last transfusion.
All four patients experienced an increase in their hemoglobin levels with multiple treatment cycles with Compound 1. In addition, one of the patients who entered the study with uncontrolled thrombocytosis (baseline platelets were 895×10^9/L) experienced a normalization of their platelet counts within the first month of monotherapy treatment with Compound 1. The patient's platelet counts remained normal for more than 20 weeks. This patient's thrombocytosis was also accompanied by severe headaches requiring multiple hospital admission. Following treatment with Compound 1, however, the patient's headaches were resolved. Brief narratives for all four patients treated for at least 6 months are presented below.
At entry into the study with Compound 1, their spleen volume by MRI was 1404 cc and was 12 cm by palpation. The patient presented with early satiety, night sweats, and dyspnea at the start of the study. […] The lowest spleen volume by MRI was 1144 cc, a 19% reduction, at the 6-month MM. The dose of ruxolitinib was reduced on Cycle 10 to 7.5 mg BID to address decreasing platelet count.
When Patient 246 initiated combination treatment with Compound 1 125 mg QD and ruxolitinib 10 mg BID their spleen volume was 607 cc by MRI and 2 cm by palpation and they required regular transfusions (2 units of RBC every 3-4 weeks).
The patient also presented with uncontrolled thrombocytosis at study entry (platelet count of 895×10^9/L at baseline) despite hydroxyurea. In addition, the patient had experienced persistent and debilitating headaches that required multiple hospital admissions for pain control. Their platelets were normalized after receiving their first two weeks of Compound 1 monotherapy (183 x10^9/L) and have remained within the normal range for the remainder of the time they have been on study (see FIG. 6). Within 2 months on Compound 1 monotherapy, the patient's severe headaches had resolved; their night sweats were less frequent; and a 37% reduction in symptoms was assessed by the Myeloproliferative Neoplasm Symptom (MNS) score. Their ECOG performance score decreased from 2 to 1 after two treatment cycles with CPI-0610 and a 25% decrease in spleen volume (640 cc) was assessed by MRI after 8 treatment cycles, the most recent measurement.
Their constitutional symptoms at study entry included fatigue, early satiety, and difficulty concentrating. […] The patient was reinitiated with a reduced Compound 1 dose of 175 mg at the beginning of Cycle 2, which has been tolerated for the remaining time on study (>6 months). While the patient's spleen has shown minimal change through palpation a spleen volume reduction of 11% (1023 cc) was measured by MRI after 3 months on treatment with Compound 1. Their MNS score improved 19% after 2 months on the 175 mg QD dose and after 6 months of Compound 1 treatment their bone marrow fibrosis grade decreased from MF-2 at baseline to MF-1 based on a local pathologist's assessment.

[3] = tested on: JAK inhibitor treatment naive myelofibrosis patients; type: in vivo, human
Procedure: A Phase 2 study of Compound 1 in subjects with myelofibrosis (MF) was conducted. Three treatment arms were studied:
Arm 3—combination treatment with Compound 1 and Rux in patients (pts) who have not previously been administered a JAK inhibitor, i.e., JAK inhibitor treatment naive. In this arm, key eligibility criteria of included JAKi naive myelofibrosis (MF) patients (pts) with Dynamic International Prognostic Scoring (DIPSS) score int-1 or higher, ECOG performance status ≤2, platelet counts (PLT) ≥100×109/L, peripheral blood blast count <10%, anemia (hemoglobin <10 g/dL), ≥5 cm palpable spleen, ≥2 symptoms measurable (score ≥3) or a total symptom score (c using the MFSAF v4.0. Primary endpoint: spleen volume response (SVR); key secondary endpoints: change in TSS, safety and PK; additional endpoints: changes in proinflammatory cytokine (Ck) levels, BM morphology and mutant allele burden.
The starting dose of Compound 1 was 125 mg given orally, once daily for 2 weeks on/1 week off in a 21-day dosing cycle. Two separate time points for data analysis occurred for at least Arms 1 and 2 and are discussed below: one at approximately 12 weeks of treatment (first assessment of spleen volume by MRI or CT and every 12 weeks thereafter) and another at approximately 24 weeks of treatment (first assessment of bone marrow biopsy and every 24 weeks thereafter). Patients were added to the study following the first time point.
Demographics and results are as follows: Baseline median age: 71 years (52-76), gender: 8 male (72.7%), ECOG ≤1: 10 (90.9%) patients, primary MF: 8 (72.7%) patients, DIPSS score: int-1/int-2/high: 2/7/2 patients, median platelet: 368×109/L (112-951), 9 (81.8%) patients with hemoglobin <10 g/dL, median spleen volume: 1379 cc (580-2807), median TSS: 11.8 (4.1-17), driver mutations: 11 (100%) with ≥1 JAK2/MPL/CALR mutations, HMR (high molecular risk) mutations: 6 […] patients, and ≥3 mutations: 4 (36%) patients. […] See FIG. 9, where * is data post cut off-date.

[4] = expanded population n=15, at least 12 weeks, FIG. 16

## Cc1noc2c1-c1ccccc1C(c1ccc(Cl)cc1)=N[C@H]2CC(N)=O [Compound 1, 2-((4S)-6-(4-chlorophenyl)-1-methyl-4H-benzo[c]isoxazolo[4,5-e]azepin-4-yl)acetamide]
[1]; Donor 1, percent of cells double positive for CD41a and CD42b, read-out: Megakaryocyte differentiation EC50
  EC50: 60 nM
[1]; Donor 1, read-out: Megakaryocyte live count EC50
  EC50: 26 nM
[1]; Donor 1, read-out: Total live count EC50
  EC50: 43 nM
[1]; Donor 1, read-out: Viability EC50
  EC50: 300 nM
[1]; Donor 2, percent of cells double positive for CD41a and CD42b, read-out: Megakaryocyte differentiation EC50
  EC50: 131 nM
[1]; Donor 2, read-out: Megakaryocyte live count EC50
  EC50: 29 nM
[1]; Donor 2, read-out: Total live count EC50
  EC50: 32 nM
[1]; Donor 2, read-out: Viability EC50
  EC50: > 500 nM
[1]; Mean of two donors, read-out: Megakaryocyte differentiation EC50
  EC50: 96 nM
[1]; Mean of two donors, read-out: Megakaryocyte live count EC50
  EC50: 28 nM
[1]; Mean of two donors, read-out: Total live count EC50 (overall cell proliferation)
  EC50: 38 nM
[1]; Mean of two donors, read-out: Viability EC50
  EC50: 400 nM
[1]; in the presence of 250 nM ruxolitinib, extrapolated, below the lowest dose tested, read-out: overall cell proliferation mean EC50 in the presence of ruxolitinib
  EC50: 17 nM
[2]; Patient 245, 6-month MRI, with ruxolitinib
  spleen volume reduction: 19%
[2]; Patient 245, 6-month MRI, with ruxolitinib, 1404 cc at entry
  lowest spleen volume by MRI: 1144 cc
[2]; Patient 245, after 4 weeks of therapy with Compound 1 and ruxolitinib, 12 cm before
  spleen size: 5 cm
[2]; Patient 245, within 4 months, Compound 1 125 mg QD and ruxolitinib 15 mg BID, 12 cm at entry
  spleen by palpation: 5 cm
[2]; Patient 246, Compound 1 125 mg QD titrated to 175 mg QD and ruxolitinib 10 mg BID, TI = >12 weeks without transfusion and hemoglobin >8 g/dL
  time to transfusion independence: ≤ 7 months
[2]; Patient 246, by Cycle 12, with ruxolitinib
  reduction in spleen volume: 37%
[2]; Patient 246, by Cycle 12, with ruxolitinib, 607 cc at start
  spleen volume: 380 cc
[2]; Patient 246, with ruxolitinib
  most recent hemoglobin measurement: 10.9 g/dL
[2]; Patient 247, after 8 treatment cycles, monotherapy
  decrease in spleen volume by MRI: 25%
[2]; Patient 247, after 8 treatment cycles, monotherapy, 858 cc at entry
  spleen volume by MRI: 640 cc
[2]; Patient 247, after first two weeks of monotherapy, 895×10^9/L at baseline
  platelets: 1.83e+11 L⁻¹
[2]; Patient 247, after two treatment cycles, from 2, monotherapy
  ECOG performance score: 1
[2]; Patient 247, within 2 months, monotherapy
  reduction in symptoms by Myeloproliferative Neoplasm Symptom (MNS) score: 37%
[2]; Patient 248, 175 mg from Cycle 2
  time reduced dose has been tolerated: > 6 months
[2]; Patient 248, after 2 months on 175 mg QD
  MNS score improvement: 19%
[2]; Patient 248, after 3 months, monotherapy
  spleen volume reduction by MRI: 11%
[2]; Patient 248, after 3 months, monotherapy, 1148 cc at entry
  spleen volume by MRI: 1023 cc
[2]; from about 8 g/dl, FIG. 5
  hemoglobin level after treatment: about 10.9 g/dl
[2]; human, in vivo
  tolerability of starting dose: did not tolerate
[2]; patient who was transfusion dependent at study entry
  time elapsed since last transfusion: 7 months
[2]; patient with uncontrolled thrombocytosis (Patient 247), monotherapy
  time platelet counts remained normal: more than 20 weeks
[2]; patients 247 and 248, from about 8 g/dL
  hemoglobin level after treatment: about 11.5 g/dL
[3]; 4 patients on treatment for ≥12 weeks, with ruxolitinib
  patients achieving ≥50% improvement in TSS: 100%
[3]; 4 patients on treatment for ≥12 weeks, with ruxolitinib, FIG. 9
  patients achieving ≥35% spleen volume reduction: 100%
[3]; expanded population n=15, FIG. 17
  patients who had a TSS of ≥10: about 71%
[3]; expanded population n=15, FIG. 18
  patients with overall improvement in PGIC: About 80%
[3]; [4]
  SVR, average: about −49.7%
  patients achieving ≥35% SVR: About 80%
[3]; human, in vivo
  DLTs and grade ≥3 thrombocytopenia: no DLTs or grade ≥3 thrombocytopenia
  most common TEAE observed in ≥2 patients: anemia (1 grade 3), fatigue (all ≤grade 2), and non-cumulative reversible thrombocytopenia (all ≤grade 2)
